Test results: patent US7053178B2, “Synthetic peptides and kits for diagnosis of anti-phospholipid syndrome” (Yeda Research Development Co., LTD, priority 1998, dated 2006)
Where no end group is shown, it is not given here.

Legend:
anti-β2GPI mAb G-3 = assay: ELISA binding of G-3 mAb to phage-displayed hexapeptides; set-up: species or system human; scale not given here; conditions: G-3 mAb 5 μg/ml, 10^9 phage particles/well, O.D. at 405 nm
Protocol: (§1) (a) Epitope Library. The hexapeptide epitope library was kindly provided by George P. Smith (University of Missouri, Columbia, MO) and was constructed by use of the phage fd-derived vector fUSE5 as described (Scott and Smith, 1990). This library consists of 2×10^8 original phage clones each containing a hexapeptide fused to the minor coat protein PIII (Scott and Smith, 1990). (b) Anti-β2GPI mAbs. The human anti-β2GPI mAbs named ILA-1, ILA-3 and G-3 (IgM), were prepared by human-human hybridoma technique from PBL of an APS patient as described (George et al., 1998). Briefly, peripheral blood cells (PBL) were separated from whole blood by Ficoll-Hypaque gradient, the PBL were exposed to pokeweed mitogen for 5 days in order to enrich the B cell population and the lymphocytes were fused with the human lymphoblastoid cell line GM4672 in the presence of polyethyleneglycol (PEG 1500). After fusion, the cells were seeded into 96-well tissue culture plates with RPMI 1640, 10% FCS and hypoxanthine-aminopterin-thymidine (HAT) selection media. New clones were detected after 4–5 weeks, grown and screened for binding to β2GPI by ELISA. All clones were subjected 4 times to limiting dilution cloning procedures in regular medium. […] The hexapeptide epitope library of section (a) above was used as described (Scott and Smith, 1990). Briefly, a library sample containing 3.8×10^9 infectious phage particles was subjected to three rounds of selection (panning) and amplification. For each selection cycle a biotinylated mAb prepared as described in section (b) above (10 μg in the first panning and 1 μg for the others) was added in a total volume of 50 μl. The phages were preincubated with the biotinylated mAb overnight at 4° C., and the reaction mixtures were then layered in 1 ml PBS on streptavidin-coated 30-mm polystyrene petri dishes (Nunc, Kamstrup, Roskilde, Denmark) for 30 min at room temperature. Unbound phages were removed by extensive washings in PBS, and the remaining phages were eluted with 0.1M glycine-HCl, pH 2.2, and neutralized with Tris 1M. […]

anti-β2GPI mAb ILA-3 = assay: ELISA binding of ILA-3 mAb to phage-displayed hexapeptides; set-up: species or system human; scale not given here; conditions: ILA-3 mAb 5 μg/ml, 10^9 phage particles/well, O.D. at 405 nm
Protocol: as §1, with “1990).” for “1990). Briefly, a library sample containing 3.8×10^9 infectious phage particles was subjected to three rounds of selection (panning) and amplification. For each selection cycle a biotinylated mAb prepared as described in section (b) above (10 μg in the first panning and 1 μg for the others) was added in a total volume of 50 μl. The phages were preincubated with the biotinylated mAb overnight at 4° C., and the reaction mixtures were then layered in 1 ml PBS on streptavidin-coated 30-mm polystyrene petri dishes (Nunc, Kamstrup, Roskilde, Denmark) for 30 min at room temperature. Unbound phages were removed by extensive washings in PBS, and the remaining phages were eluted with 0.1M glycine-HCl, pH 2.2, and neutralized with Tris 1M.”

anti-β2GPI mAb ILA-1 = assay: ELISA binding of ILA-1 mAb to phage-displayed hexapeptides; set-up: species or system human; conditions: ILA-1 mAb 5 μg/ml, 10^9 phage particles/well, O.D. at 405 nm
Protocol: as §1, with “1990).” for “1990). Briefly, a library sample containing 3.8×10^9 infectious phage particles was subjected to three rounds of selection (panning) and amplification. For each selection cycle a biotinylated mAb prepared as described in section (b) above (10 μg in the first panning and 1 μg for the others) was added in a total volume of 50 μl. The phages were preincubated with the biotinylated mAb overnight at 4° C., and the reaction mixtures were then layered in 1 ml PBS on streptavidin-coated 30-mm polystyrene petri dishes (Nunc, Kamstrup, Roskilde, Denmark) for 30 min at room temperature. Unbound phages were removed by extensive washings in PBS, and the remaining phages were eluted with 0.1M glycine-HCl, pH 2.2, and neutralized with Tris 1M.”

| Substance | Binding O.D. (anti-β2GPI mAb G-3) [O.D.] | Binding O.D. (anti-β2GPI mAb ILA-1) [O.D.] | further results |
| --- | --- | --- | --- |
| TLRVYK [T L R V Y K] | 791 ± 33 |  |  |
| KDKATF [K D K A T F] |  |  | Binding O.D. (anti-β2GPI mAb ILA-3): 1178 ± 101 O.D. |
| TLLRVY [T L L R V Y] | 869 ± 71 |  |  |
| KTPRVT [K T P R V T] |  | 1201 ± 142 |  |
| LKTPRV [L K T P R V] |  | 975 ± 72 |  |
| TKLRVY [T K L R V Y] | 954 ± 62 |  |  |
